Values quoted from earlier work as cited in patent publication US10584074B2, “Microencapsulated nitrification inhibitor compositions” (Dow AgroSciences LLC, priority 2017, dated 2020).

Settings: at 23° Celsius

Clc1cccc(C(Cl)(Cl)Cl)n1 [nitrapyrin, 2-chloro-6-(trichloromethyl)pyridine]
vapor pressure: 2.8×10^−3 mm Hg
